Measured values: US20250051275A1, “PYRROLE DERIVATIVE OR PHARMACEUTICALLY OR SITOLOGICALLY ACCEPTABLE SALTS THEREOF, AND COMPOSITION FOR PREVENTION, AMELIORATION OR TREATMENT OF GASTROINTESTINAL DISORDERS COMPRISING SAME AS ACTIVE INGREDIENT” (HANA PHARM CO., LTD., priority 2021, published 2025)

How the values were obtained:
[1] = Pharmacokinetics in rats according to deuterium substitution; assay type: in vivo; settings: male rats, oral 10 mg/kg; for concentration at 0.5 h / concentration at 1 h / concentration at 2 h / concentration at 5 h / concentration at 8 h: Sprague-Dawley, rat, plasma, read-out: Blood concentration; for concentration at 0.5 h: 0.5 hr after administration; for concentration at 1 h: 1 hr after administration; for concentration at 2 h: 2 hr after administration; for concentration at 5 h: 5 hr after administration; for concentration at 8 h: 8 hr after administration
Procedure: In order to evaluate the impact on the deuterium substituent in terms of pharmacokinetics, the blood concentrations of Example 35 and Comparative Example 2 in rats were measured and compared. Six male rats (Sprague-Dawley Rats) were obtained, acclimatized, and then distributed into two groups with three rats per test group. As feed, irradiated solid feed was allowed to be freely consumed, and, as water, tap water disinfected with an ultraviolet sterilizer and micro-filtration device was placed in a polycarbonate drinking bottle and allowed to be freely consumed. Rats were raised in an animal breeding area maintained at a temperature of 23±3° C., with a relative humidity of 50±20%, a ventilation frequency of 10 to 15 times/hr, for a lighting time of 12 hours (lights on at 8 a.m. to lights off at 8 p.m.), and with an illuminance of 150 to 300 Lux.
Blood samples were obtained from the jugular vein at 0.5, 1, 2, 5, and 8 hours after drug administration, respectively. Blood samples were centrifuged (2 to 8° C., 3,200 g, 10 minutes) to obtain plasma. The amount of administered compound into the plasma sample was quantified by using LC-MS/MS.

[2] = tested on: rats (Sprague-Dawley Rats); test: Acute oral toxicity in rats; assay type: in vivo; settings: female rats
Excerpt: An attempt was made to evaluate the acute toxicity of the compound of Example 7 on the fumarate form (Example 41). Twenty female rats (Sprague-Dawley Rats) were obtained, acclimatized, and distributed into a total of four groups, five rats per test group. As feed, irradiated solid feed was allowed to be freely consumed, and, as water, tap water disinfected with an ultraviolet sterilizer and micro-filtration device was placed in a polycarbonate drinking bottle and allowed to be freely consumed. Rats were raised in an animal breeding area maintained at a temperature of 23±3° C., with a relative humidity of 50±20%, a ventilation frequency of 10 to 15 times/hr, for a lighting time of 12 hours (lights on at 8 a.m. to lights off at 8 p.m.), and with an illuminance of 150 to 300 Lux. As the administration, oral administration, the clinically planned route, was selected for evaluation, and, as the administration dose, the highest dose was set at 600 mg/kg, referring to the results of vonoprazan.

Row | concentration at 0.5 h [1] [ng/mL] | concentration at 1 h [1] [ng/mL] | concentration at 2 h [1] [ng/mL] | concentration at 5 h [1] [ng/mL] | concentration at 8 h [1] [ng/mL] | blood concentration level higher as compared to Comparative Example 2 ([1]; 0.5 hours after administration) [times] | blood concentration level higher as compared to Comparative Example 2 ([1]; after 1 hour) | blood concentration level higher as compared to Comparative Example 2 ([1]; after 2 hours) | Compound | Survival rate (%) ([2]; single oral dose 50 mg/kg) | Survival rate (%) ([2]; single oral dose 200 mg/kg) | Survival rate (%) ([2]; single oral dose 400 mg/kg) | Survival rate (%) ([2]; single oral dose 600 mg/kg)
1 | 59.7 | 116 | 83.8 | 12.8 | 5.1 | – | – | – | CNCc1cn(S(=O)(=O)c2cccnc2)c(-c2ccc(F)cc2F)c1OC [Comparative Example 2, reference compound] | – | – | – | –
2 | 302 | 254 | 199 | 22.6 | 4.8 | 5 | at least 2 times | at least 2 times | [2H]C([2H])([2H])NCc1cn(S(=O)(=O)c2cccnc2)c(-c2ccc(F)cc2F)c1OC [Example 35, N-((5-(2,4-difluorophenyl)-4-methoxy-1-(pyridin-3-ylsulfonyl)-1H-pyrrol-3-yl)methyl)methan-d3-amine] | – | – | – | –
3 | – | – | – | – | – | – | – | – | O=C(O)/C=C/C(=O)O.[2H]C([2H])([2H])NCc1cc(-c2ccccc2F)n(S(=O)(=O)c2ccc(F)cc2)c1 [Example 41, N-((5-(2-fluorophenyl)-1-((4-fluorophenyl)sulfonyl)-1H-pyrrol-3-yl)methyl)methane-d3-amine Fumarate] | 100 | 100 | 100 | 0
